In patent US20080167314A1, “Condensed Imidazole Compound And Use Thereof” (priority 2004, published 2008) one finds melting point data, which are given here for 14 compounds.

In the case of `CCNC(=O)Nc1cc(-c2c(-c3ccc(Cl)cc3)nc3cccnn23)ccn1` [Example Compound 28-8, N-{4-[2-(4-chlorophenyl)imidazo[1,2-b]pyridazin-3-yl]pyridin-2-yl}-N′-ethylurea], the melting point lay within 223 to 224 °C. As for `CCCNC(=O)Nc1cc(-c2c(-c3ccc(F)cc3)nc3cccnn23)ccn1` [Example Compound 28-9, N-{4-[2-(4-fluorophenyl)imidazo[1,2-b]pyridazin-3-yl]pyridin-2-yl}-N′-propylurea], the melting point lay within 219 to 220 °C.

Turning to `CC(C)NC(=O)Nc1cc(-c2c(-c3ccc(F)cc3)nc3cccnn23)ccn1` [Example Compound 28-10, N-{4-[2-(4-fluorophenyl)imidazo[1,2-b]pyridazin-3-yl]pyridin-2-yl}-N′-isopropylurea], the melting point lay within 222 to 223 °C. In turn, `CCN(CC)C(=O)Nc1cc(-c2c(-c3cccc(C)c3)nc3cccnn23)ccn1` [Example Compound 32-1, N,N-diethyl-N′-{4-[2-(3-methylphenyl)imidazo[1,2-b]pyridazin-3-yl]pyridin-2-yl}urea] gave a melting point of 166 to 167 °C. The same measure for `Cc1cccc(-c2nc3cccnn3c2-c2ccnc(NC(=O)N3CCc4ccccc4C3)c2)c1` [Example Compound 32-2, N-{4-[2-(3-methylphenyl)imidazo[1,2-b]pyridazin-3-yl]pyridin-2-yl}-3,4-dihydroisoquinoline-2-(1H)carboxamide]: 122 to 124 °C; for `Cc1cc(-c2nc3c(C)cc(Cl)nn3c2-c2ccnc(N)c2)ccc1F` [Example Compound 36-1, 4-[6-chloro-2-(4-fluoro-3-methylphenyl)-8-methylimidazo[1,2-b]pyridazin-3-yl]-2-pyridylamine]: 218 to 219 °C; for `Cc1cc(-c2nc3cc(C(C)(C)C)c(Cl)nn3c2-c2ccnc(N)c2)ccc1F` [Example Compound 36-2, 4-[7-tert-butyl-6-chloro-2-(4-fluoro-3-methylphenyl)imidazo[1,2-b]pyridazin-3-yl]-2-pyridylamine]: 232 to 233 °C. The same measure for `COc1cc(Cl)nn2c(-c3ccnc(N)c3)c(-c3ccc(F)c(C)c3)nc12` [Example Compound 36-3, 4-[6-chloro-2-(4-fluoro-3-methylphenyl)-8-methoxyimidazo[1,2-b]pyridazin-3-yl]-2-pyridylamine]: 200 to 201 °C; for `CSc1cc(Cl)nn2c(-c3ccnc(N)c3)c(-c3ccc(F)c(C)c3)nc12` [Example Compound 36-4, 4-[6-chloro-2-(4-fluoro-3-methylphenyl)-8-(methylthio)imidazo[1,2-b]pyridazin-3-yl]-2-pyridylamine]: 237 to 238 °C; for `Cc1cccc(-c2nc3cccnn3c2-c2ccnc(N)n2)c1` [Example Compound 37-1, 4-[2-(3-methylphenyl)imidazo[1,2-b]pyridazin-3-yl]-2-pyrimidinamine]: 250 to 251 °C. `Cc1cc(-c2nc3c(C)ccnn3c2-c2ccnc(N)c2)ccc1F` [Example Compound 37-2, 4-[2-(4-fluoro-3-methylphenyl)-8-methylimidazo[1,2-b]pyridazin-3-yl]-2-pyridylamine] displayed a melting point of 212 to 213 °C. Take `Cc1cc(-c2nc3cc(C(C)(C)C)cnn3c2-c2ccnc(N)c2)ccc1F` [Example Compound 37-3, 4-[7-tert-butyl-2-(4-fluoro-3-methylphenyl)imidazo[1,2-b]pyridazin-3-yl]-2-pyridylamine]: the melting point was 212 to 213 °C. The same measure for `COc1ccnn2c(-c3ccnc(N)c3)c(-c3ccc(F)c(C)c3)nc12` [Example Compound 37-4, 4-[2-(4-fluoro-3-methylphenyl)-8-methoxyimidazo[1,2-b]pyridazin-3-yl]-2-pyridylamine]: 219 to 220 °C; for `Cc1cccc(-c2nc3cccnn3c2-c2ccnc(NCC(C)(C)C)c2)c1` [Example compound 6-18, N-(2,2-dimethylpropyl)-4-[2-(3-methylphenyl)imidazo[1,2-b]pyridazin-3-yl]pyridin-2-amine]: 157 to 158 °C.

The melting point is the temperature, or range, at which the solid turns liquid.
